Columns and labels:
MDA-MB-468 cells = assay: Apoptosis by annexin V/propidium iodide flow cytometry; format: cell-based, human; details: MDA-MB-468, working concentration 50 nM, 24 hours
Description: (§1) FIGS. 10A-10C. Analysis of the effect of the aptamer on apoptosis with annexin V in breast cell lines. MCF7 (FIG. 10A), MDA-MB-231 (FIG. 10B), and MDA-MB-468 (FIG. 10C) cells were seeded in 6-well plates at a density of 2.5×10^5 cells/well and transfected at 24 hours with apMNKQ2 at the set working concentrations. After 24 hours, the cells were collected, fixed, and stained with annexin V-FITC and propidium iodide. Finally, they were analyzed by cytometry. The bars represent the mean±SEM of 3 independent experiments (*p<0.05, **p<0.01, and ***p<0.001).
(§2) The assays were carried out by seeding 5×10^5 cells/well in 6-well plates and transfecting the cells 24 hours later. After 24 hours of transfection, the cells were collected and washed twice with PBS. They were then resuspended in a 1× binding buffer and left at a concentration of 1×10^6 cells/mL. Aliquots of 10^5 cells were separated from the preceding solution, as many as the number of treatments, and the annexin V and propidium iodide dyes were added to obtain: a double negative control (without labeling, living cells), a double positive for both types of labeling (late apoptotic cells and necrotic cells will be labeled), and cells labeled separately with annexin V and propidium iodide. They were incubated in darkness for 15 minutes at room temperature and brought to a final volume of 500 μL with a 1× binding buffer. Finally, the cells were passed through a flow cytometer (BD FACSCalibur™, BDBiosciences, USA) within a time no more than 1 hour after labeling. The data obtained was analyzed by means of the Flowing software 2.5.1 program.
(§3) The translocation of the […] from the inner face of the plasma membrane of the cells to the outer face by translocases is a process characteristic of apoptotic cells. To study this process, assays with annexin V-fluorescein (FITC) were performed in three cell lines. This recombinant protein binds to the phosphatidylserine residues exposed on the outer face of the plasma membrane of apoptotic cells. Together with said recombinant protein, propidium iodide (IP), an impermeable DNA marker that only enters cells when the membrane is compromised, was also used. To perform these assays, the cells were transfected with apMNKQ2 and with the control aptamer AT at the working concentrations. At 24 hours, the cells were collected, fixed, and stained with annexin V-FITC and propidium iodide. Finally, the cells were analyzed by means of flow cytometry and differentiation was made between non-apoptotic cells (annexin V-FICT negative/IP negative), apoptotic cells (annexin V-FICT positive/IP negative), late apoptotic cells (annexin V-FICT positive/IP positive), and necrotic cells (annexin V-FITC negative/IP positive).

MDA-MB-231 cells = assay: as above; format: cell-based, human; details: MDA-MB-231, working concentration 400 nM, 24 hours
Description: as §1, §2, §3

MCF7 cells = assay: as above; format: cell-based, human; details: MCF7, working concentration 150 nM, 24 hours
Description: as §1, §2, §3

[1] = Stability in human plasma; format: in vitro ADME; details: 37° C., 72 hours
Description: FIGS. 7A and 7B. Stability of apMNKQ2. Chip Experion™ DNA 1K Analysis Kit (BioRad, USA) for analyzing the stability of apMNKQ2 with 1 unit, 0.5 units, and 0.25 units of DNase I (FIG. 7A). In FIG. 7B, the degradation of aptamer apMNKQ2 in human plasma at 0, 6, 16, 24, 48, and 72 hours is depicted.
The previously structured aptamer apMNKQ2 (1 μg) was incubated in the presence of 1 unit, 0.5 units, and 0.25 units of the enzyme DNase I (ThermoFisher Scientific, USA) in the buffer supplied by the company (10 mM Tris HCl, pH 7.5, 2.5 mM MgCl2, 0.1 mM CaCl2)) for 5 minutes at 37° C., and the reaction was then stopped by adding 1 μL of 50 mM EDTA (ThermoFisher Scientific, USA) and heating at 65° C. for 10 minutes. […] The samples were analyzed using an Experion™ DNA 1K Analysis Kit chip (BioRad, USA). The intensity of each of the bands corresponding to the aptamers treated or not treated with DNase I or plasmas was assessed and the percentage of stability was calculated by dividing the value obtained for each of the treated aptamers by the value obtained for the untreated aptamer.
Resistance of the aptamer to degradation by DNases was analyzed by incubating […] of structured apMNKQ2 in the presence of three concentrations of DNase I (Thermo Scientific, USA), as described in the Materials and Methods section. […]

[2] = tested on: MCF7, MDA-MB-231, and MDAMB-468 cells; assay: Aptamer penetration into cells (Alexa-488 fluorescence microscopy); format: cell-based, human; details: Alexa fluor 488-conjugated aptamer 250 nM added to medium, 24 hours, compared with lipofectamine transfection
Description: FIGS. 16A & 16B. Study of aptamer apMNKQ2 penetration into cells. MCF7, MDA-MB-231, and MDAMB-468 cells were seeded in 24-well plates with a cover glass at a density of 3×10^4 cells/well, with the transfection/addition of apMNKQ2 labeled with Alexa-488 at 250 nM at 24 hours. Twenty-four hours after transfection, the cells were fixed, stained with Hoechst, and mounted on slides with Prolong™ mounting medium. The number refers to the intensity of the aptamer measured with the imageJ program and expressed in arbitrary units.
To analyze cell penetration by apMNKQ2, 3×10^4 cells/well were seeded on cover glasses and the structured, Alexa fluor 488-conjugated aptamer at 250 nM was added to the cell medium at 24 hours. In parallel, the aptamer was transfected with lipofectamine at the same concentration. After 24 hours, the cells were fixed and stained with Hoechst.

Question: Which results are given for “5′TGGGGTGGGCGGGCGGGGGTGGGGGTGGT-3′ (DNA, backbone and methylation of C not given here; further chemistry not fully specified) [apMNKQ2]”?
Answer: induction of apoptosis (annexin V-FITC/propidium iodide) (MDA-MB-468 cells): greater and statistically significant; induction of apoptosis (annexin V-FITC/propidium iodide) (MDA-MB-231 cells): capable of inducing apoptosis; induction of apoptosis (annexin V-FITC/propidium iodide) (MCF7 cells): capable of inducing apoptosis; late apoptosis with respect to the control (MCF7 cells): statistically significant; degradation in human plasma [1]: no degradation; penetration into cells without transfectant [2]: capable of only entering the cells, although with a lower intensity
